Key:
MAGL [1] = target: T1, MAGL (Mus musculus (Mouse), UniProt O35678); test: Mouse brain proteomes from inhibitor treated mice (oral gavage, sacrificed 4 h after administration); assay type: in vivo; conditions: 5 mg/kg oral gavage
Experimental: (§1) Preparation of Mouse Brain Proteomes from Inhibitor Treated Mice.
(§2) Inhibitors were administered to wild-type C57B1/6J by oral gavage in a vehicle of polyethylene glycol. Each animal was sacrificed 4 h following administration and brain proteomes were prepared and analyzed according to previously established methods (See Niphakis, M. J., et al. (2011) ACS Chem. Neurosci. and Long, J. Z., et al. Nat. Chem. Biol. 5:37-44).

FAAH [2] = target: T2, FAAH (Mus musculus (Mouse), UniProt O08914); test: as above; assay type: in vivo; conditions: 5 mg/kg oral gavage
T2 sequence (O08914 whole entry): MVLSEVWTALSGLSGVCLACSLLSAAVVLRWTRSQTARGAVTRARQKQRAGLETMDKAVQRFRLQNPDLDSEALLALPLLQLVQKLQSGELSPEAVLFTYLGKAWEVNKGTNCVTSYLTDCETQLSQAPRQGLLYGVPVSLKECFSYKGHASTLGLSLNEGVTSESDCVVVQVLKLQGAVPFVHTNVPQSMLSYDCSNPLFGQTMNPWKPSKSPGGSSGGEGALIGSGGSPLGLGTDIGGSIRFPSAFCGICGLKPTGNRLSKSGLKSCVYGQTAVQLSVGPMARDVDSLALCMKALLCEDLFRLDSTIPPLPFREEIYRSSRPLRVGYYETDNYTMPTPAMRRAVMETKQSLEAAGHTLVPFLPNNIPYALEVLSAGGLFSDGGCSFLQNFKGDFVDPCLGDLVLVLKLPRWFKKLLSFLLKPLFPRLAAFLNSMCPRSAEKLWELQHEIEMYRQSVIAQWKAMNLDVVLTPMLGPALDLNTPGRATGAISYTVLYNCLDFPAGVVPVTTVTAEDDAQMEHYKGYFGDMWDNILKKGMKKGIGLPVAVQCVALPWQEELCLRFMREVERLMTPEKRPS
Experimental: as §1, §2

MAGL [3] = target: MAGL (Homo sapiens (Human), UniProt Q99685); test: In vitro competitive activity-based protein profiling, human proteomes (prefrontal cortex or PC3 cell membrane fractions); assay type: biochemical; conditions: 1 μM, human proteome; for inhibition at 1 µM: read-out: MAGL % inh. 1 μM (human)
Sequence of MAGL (Homo sapiens (Human), UniProt Q99685) (Q99685 whole entry): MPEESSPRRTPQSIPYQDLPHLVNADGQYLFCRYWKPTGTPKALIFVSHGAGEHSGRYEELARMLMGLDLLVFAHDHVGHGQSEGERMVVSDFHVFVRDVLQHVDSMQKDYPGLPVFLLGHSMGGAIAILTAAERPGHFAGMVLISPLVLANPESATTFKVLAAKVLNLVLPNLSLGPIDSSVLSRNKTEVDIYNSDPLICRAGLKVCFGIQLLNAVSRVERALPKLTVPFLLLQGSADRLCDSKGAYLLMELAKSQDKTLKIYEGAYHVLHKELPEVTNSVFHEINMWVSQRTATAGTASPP
Summary of the method: (§3)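 Activity of MAGL and FAAH was quantified from fluorescent gel band intensities. Beforehand, inhibitors at several concentrations competed against subsequent probe labelling (FP-Rh, JW912 or HT-01) in species-matched proteomes, each step 30 min at 37° C.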

FAAH [4] = target: FAAH (Homo sapiens (Human), UniProt O00519); test: as above; assay type: biochemical; conditions: 1 μM, human proteome; for inhibition at 1 µM: read-out: FAAH % inh. 1 μM (human)
Sequence of FAAH (Homo sapiens (Human), UniProt O00519) (O00519 whole entry): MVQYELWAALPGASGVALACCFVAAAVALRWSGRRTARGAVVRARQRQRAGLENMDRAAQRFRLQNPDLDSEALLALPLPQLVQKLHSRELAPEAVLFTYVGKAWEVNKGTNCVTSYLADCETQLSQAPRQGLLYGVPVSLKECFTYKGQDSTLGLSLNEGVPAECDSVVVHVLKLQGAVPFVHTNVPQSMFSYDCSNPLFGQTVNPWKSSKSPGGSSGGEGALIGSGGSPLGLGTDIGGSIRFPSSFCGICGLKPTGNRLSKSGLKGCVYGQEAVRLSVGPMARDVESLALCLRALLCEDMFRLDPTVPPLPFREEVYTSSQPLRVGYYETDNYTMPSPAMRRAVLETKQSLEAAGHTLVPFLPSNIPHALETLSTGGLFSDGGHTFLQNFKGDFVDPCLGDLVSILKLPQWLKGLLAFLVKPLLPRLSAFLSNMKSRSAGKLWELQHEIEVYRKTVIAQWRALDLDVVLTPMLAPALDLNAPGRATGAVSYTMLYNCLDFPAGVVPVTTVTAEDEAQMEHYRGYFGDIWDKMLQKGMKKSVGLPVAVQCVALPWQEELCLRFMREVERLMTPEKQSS
Summary of the method: as §3

MAGL [5] = target: T1, MAGL; test: In vitro competitive activity-based protein profiling, mouse proteomes (brain membrane fraction or cell lysates); assay type: biochemical; conditions: mouse proteome; for inhibition at 1 µM: read-out: MAGL % inh. 1 μM (mouse)
Summary of the method: as §3

FAAH [6] = target: T2, FAAH; test: as above; assay type: biochemical; conditions: mouse proteome; for inhibition at 1 µM: read-out: FAAH % inh. 1 μM (mouse)
Summary of the method: as §3

T1 sequence (O35678 whole entry): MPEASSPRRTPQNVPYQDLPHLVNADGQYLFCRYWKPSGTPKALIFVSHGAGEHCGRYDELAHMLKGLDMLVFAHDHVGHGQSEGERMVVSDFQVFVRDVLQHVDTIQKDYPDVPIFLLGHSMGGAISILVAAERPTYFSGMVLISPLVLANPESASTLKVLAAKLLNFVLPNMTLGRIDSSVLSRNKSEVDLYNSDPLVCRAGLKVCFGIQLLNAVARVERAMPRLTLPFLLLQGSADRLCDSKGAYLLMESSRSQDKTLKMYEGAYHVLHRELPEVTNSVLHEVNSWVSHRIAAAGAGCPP

SMILES | inhibition at 1 µM (MAGL [3]) [%] | inhibition at 1 µM (FAAH [4]) [%] | inhibition at 1 µM (MAGL [5]) [%] | inhibition at 1 µM (FAAH [6]) [%] | MAGL % inh. 5 mg/kg (mouse) (MAGL [1]) | FAAH % inh. 5 mg/kg (mouse) (FAAH [2]) | MAGL % inh. 1 μM (human) (MAGL [3]) | FAAH % inh. 1 μM (human) (FAAH [4]) | MAGL % inh. 1 μM (mouse) (MAGL [5]) | FAAH % inh. 1 μM (mouse) (FAAH [6])
CC(C)OC1CCN(c2cc(CN3CCN(C(=O)n4ccc(NS(C)(=O)=O)n4)C[C@@H]3C)ccc2Cl)CC1 [Example 32, (S)—N-(1-(4-(4-chloro-3-(4-isopropoxypiperidin-1-yl)benzyl)-3-methylpiperazine-1-carbonyl)-1H-pyrazol-3-yl)methanesulfonamide] | > 75 | 0 to 25 | > 75 | 0 to 25 | A (% inhibition is greater than or equal to 75%) | D (% inhibition is greater than or equal to 0% and less than 25%) | – | – | – | –
CS(=O)(=O)Nc1ccn(C(=O)N2CCN(Cc3ccc(C(F)(F)F)nc3N3CCCC3)CC2)n1 [Example 71, N-(1-(4-((2-(Pyrrolidin-1-yl)-6-(trifluoromethyl)pyridin-3-yl)methyl)piperazine-1-carbonyl)-1H-pyrazol-3-yl)methanesulfonamide] | > 75 | 0 to 25 | > 75 | 0 to 25 | A (% inhibition is greater than or equal to 75%) | D (% inhibition is greater than or equal to 0% and less than 25%) | – | – | – | –
CS(=O)(=O)Nc1ccn(C(=O)N2CCC(Oc3ccc(C(F)(F)F)cc3N3CCCC3)CC2)n1 [Example 80, N-(1-(4-(2-(Pyrrolidin-1-yl)-4-(trifluoromethyl)phenoxy)piperidine-1-carbonyl)-1H-pyrazol-3-yl)methanesulfonamide] | > 75 | 0 to 25 | > 75 | 0 to 25 | A (% inhibition is greater than or equal to 75%) | D (% inhibition is greater than or equal to 0% and less than 25%) | – | – | – | –
CS(=O)(=O)Nc1ccn(C(=O)N2CCN(Cc3ccc(Cl)nc3N3CCCC3)CC2)n1 [Example 90, N-(1-(4-((6-Chloro-2-(pyrrolidin-1-yl)pyridin-3-yl)methyl)piperazine-1-carbonyl)-1H-pyrazol-3-yl)methanesulfonamide] | > 75 | 0 to 25 | > 75 | 0 to 25 | C (% inhibition is greater than or equal to 25% and less than 50%) | D (% inhibition is greater than or equal to 0% and less than 25%) | – | – | – | –
CS(=O)(=O)Nc1ccn(C(=O)N2C[C@H]3C[C@@H](N(CC(=O)O)Cc4cc(Cl)ccc4C(F)(F)F)C[C@H]3C2)n1 [Example 93, N-(5-Chloro-2-(trifluoromethyl)benzyl)-N-((3aR,5r,6aS)-2-(3-(methylsulfonamido)-1H-pyrazole-1-carbonyl)octahydrocyclopenta[c]pyrrol-5-yl)glycine] | – | – | – | – | D (% inhibition is greater than or equal to 0% and less than 25%) | D (% inhibition is greater than or equal to 0% and less than 25%) | A (% inhibition is greater than or equal to 75%) | D (% inhibition is greater than or equal to 0% and less than 25%) | A (% inhibition is greater than or equal to 75%) | D (% inhibition is greater than or equal to 0% and less than 25%)
CS(=O)(=O)Nc1ccn(C(=O)N2CCC3(CCN(Cc4ccc(C(F)(F)F)cc4N4CCCC4)C3)CC2)n1 [Example 58, N-(1-(2-(2-(Pyrrolidin-1-yl)-4-(trifluoromethyl)benzyl)-2,8-diazaspiro[4.5]decane-8-carbonyl)-1H-pyrazol-3-yl)methanesulfonamide] | > 75 | 0 to 25 | > 75 | 0 to 25 | A (% inhibition is greater than or equal to 75%) | D (% inhibition is greater than or equal to 0% and less than 25%) | – | – | – | –
CC(=O)Nc1ccn(C(=O)N2CCN(Cc3ccc(Cl)cc3OC3(C(=O)O)CC3)CC2)n1 [Example 4, 1-(2-((4-(3-acetamido-1H-pyrazole-1-carbonyl)piperazin-1-yl)methyl)-5-chlorophenoxy)cyclopropane-1-carboxylic acid] | > 75 | 0 to 25 | > 75 | 0 to 25 | D (% inhibition is greater than or equal to 0% and less than 25%) | D (% inhibition is greater than or equal to 0% and less than 25%) | – | – | – | –

Now from value to compound, other results behind:

inhibition at 1 µM (MAGL [3]) [%] | inhibition at 1 µM (FAAH [4]) [%] | inhibition at 1 µM (MAGL [5]) [%] | inhibition at 1 µM (FAAH [6]) [%] | SMILES | MAGL % inh. 5 mg/kg (mouse) (MAGL [1]) | FAAH % inh. 5 mg/kg (mouse) (FAAH [2]) | MAGL % inh. 1 μM (human) (MAGL [3]) | FAAH % inh. 1 μM (human) (FAAH [4]) | MAGL % inh. 1 μM (mouse) (MAGL [5]) | FAAH % inh. 1 μM (mouse) (FAAH [6])
> 75 | 0 to 25 | > 75 | 0 to 25 | CS(=O)(=O)Nc1ccn(C(=O)N2CCC(Oc3ccc(C(F)(F)F)cc3-n3cccn3)CC2)n1 [Example 98, N-(1-(4-(2-(1H-Pyrazol-1-yl)-4-(trifluoromethyl)phenoxy)piperidine-1-carbonyl)-1H-pyrazol-3-yl)methanesulfonamide] | D (% inhibition is greater than or equal to 0% and less than 25%) | D (% inhibition is greater than or equal to 0% and less than 25%) | – | – | – | –
> 75 | 50 to 75 | > 75 | > 75 | CC(=O)Nc1ccn(C(=O)N2CC3CN(Cc4cc(N5CCCC5)cc(C(F)(F)F)c4)CC3C2)n1 (stereo not drawn) [Example 168, N-(1-(5-(3-(Pyrrolidin-1-yl)-5-(trifluoromethyl)benzyl)octahydropyrrolo[3,4-c]pyrrole-2-carbonyl)-1H-pyrazol-3-yl)acetamide] | A (% inhibition is greater than or equal to 75%) | A (% inhibition is greater than or equal to 75%) | – | – | – | –
> 75 | 0 to 25 | > 75 | 0 to 25 | CN(Cc1ccc(C(F)(F)F)cc1N1CCN(C(=O)CO)CC1)C1(C)CCN(C(=O)n2ccc(NS(C)(=O)=O)n2)CC1 [Example 104, N-(1-(4-((2-(4-(2-Hydroxyacetyl)piperazin-1-yl)-4-(trifluoromethyl)benzyl)(methyl)amino)-4-methylpiperidine-1-carbonyl)-1H-pyrazol-3-yl)methanesulfonamide] | D (% inhibition is greater than or equal to 0% and less than 25%) | D (% inhibition is greater than or equal to 0% and less than 25%) | – | – | – | –
> 75 | 50 to 75 | > 75 | > 75 | CC(=O)Nc1ccn(C(=O)N2CC3CN(Cc4ccc(N5CCCC5)cc4Cl)CC3C2)n1 (stereo not drawn) [Example 169, N-(1-(5-(2-Chloro-4-(pyrrolidin-1-yl)benzyl)octahydropyrrolo[3,4-c]pyrrole-2-carbonyl)-1H-pyrazol-3-yl)acetamide] | B (% inhibition is greater than or equal to 50% and less than 75%) | B (% inhibition is greater than or equal to 50% and less than 75%) | – | – | – | –
> 75 | 0 to 25 | > 75 | 0 to 25 | C[C@@H]1CN(C(=O)n2ccc(NS(C)(=O)=O)n2)CCN1Cc1ccc(Cl)c(N2CC3COCC3C2)c1 (stereo partly drawn) [Example 133, N-(1-((3R)-4-(4-Chloro-3-(tetrahydro-1H-furo[3,4-c]pyrrol-5(3H)-yl)benzyl)-3-methylpiperazine-1-carbonyl)-1H-pyrazol-3-yl)methanesulfonamide] | D (% inhibition is greater than or equal to 0% and less than 25%) | D (% inhibition is greater than or equal to 0% and less than 25%) | – | – | – | –
> 75 | 0 to 25 | > 75 | 0 to 25 | C[C@H]1CN(Cc2ccc(Cl)c(N3CC4COCC4C3)c2)CCN1C(=O)n1ccc(NS(C)(=O)=O)n1 (stereo partly drawn) [Example 135, N-(1-((2S)-4-(4-Chloro-3-(tetrahydro-1H-furo[3,4-c]pyrrol-5(3H)-yl)benzyl)-2-methylpiperazine-1-carbonyl)-1H-pyrazol-3-yl)methanesulfonamide] | D (% inhibition is greater than or equal to 0% and less than 25%) | D (% inhibition is greater than or equal to 0% and less than 25%) | – | – | – | –
> 75 | 0 to 25 | > 75 | 0 to 25 | C[C@@H]1CN(C(=O)n2ccc(NS(C)(=O)=O)n2)CCN1Cc1ccc(Cl)c(N2CCC(F)CC2)c1 [Example 138, (R)-N-(1-(4-(4-Chloro-3-(4-fluoropiperidin-1-yl)benzyl)-3-methylpiperazine-1-carbonyl)-1H-pyrazol-3-yl)methanesulfonamide] | A (% inhibition is greater than or equal to 75%) | D (% inhibition is greater than or equal to 0% and less than 25%) | – | – | – | –
